Test results taken from publication PMC4014597 (PLoS ONE, 2014).

Tests used:
[1] = biological target: T1, human G9a-like protein (GLP) (Homo sapiens, UniProt Q9H9B1); assay: GLP assay (histone methylation inhibition); type: biochemical; settings: 8 μM inhibitor; read-out: Percent of GLP inhibition
T1 construct: catalytic SET domain (residues 734-1235; pXC758) were purified as described; made in house
T1 sequence (Q9H9B1 765-1266): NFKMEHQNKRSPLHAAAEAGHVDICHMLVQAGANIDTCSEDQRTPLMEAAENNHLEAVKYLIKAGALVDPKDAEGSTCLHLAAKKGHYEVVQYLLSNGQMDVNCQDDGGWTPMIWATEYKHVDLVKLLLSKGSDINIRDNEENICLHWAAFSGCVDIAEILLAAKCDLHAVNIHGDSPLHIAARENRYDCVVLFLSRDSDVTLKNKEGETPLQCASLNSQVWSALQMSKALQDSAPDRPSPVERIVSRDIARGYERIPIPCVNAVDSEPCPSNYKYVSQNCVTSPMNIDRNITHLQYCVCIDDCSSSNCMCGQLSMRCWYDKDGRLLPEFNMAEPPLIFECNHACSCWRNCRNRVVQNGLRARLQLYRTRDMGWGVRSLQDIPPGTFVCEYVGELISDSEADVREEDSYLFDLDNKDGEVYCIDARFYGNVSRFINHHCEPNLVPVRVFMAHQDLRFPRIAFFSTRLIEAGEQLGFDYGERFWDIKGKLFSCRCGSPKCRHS
Method: GLP Assay. Recombinant human G9a-like protein (GLP) C-terminal fragment containing both the ankyrin repeats and catalytic SET domain (residues 734-1235; pXC758) were purified as described. For histone methylation inhibition, the assay was performed in 20 μL reaction containing 4.6 mM [methyl-^3H]-AdoMet, 50 μg/mL histone from calf thymus (SIGMA), 10 μg/mL (0.17 μM) GLP, 100 mM KCl, 5 mM (DTT) and 50 mM Tris-HCl pH 8.5. GLP was pre-incubated with AdoMet and 8 µM inhibitors for 5 min at 30 °C before the addition of the histone substrate. After incubation (5 min), the reaction was terminated by the addition of 20% trichloroacetic acid (TCA, Fisher Scientific). The reaction mixture was spotted on GF/A paper circles (Whatman), washed three times with 3 mL of 10% TCA and once with 3 mL of ethanol. The dried circles were subjected to liquid-scintillation counting with Cytoscint scintillant.

U-937 cells = assay: Cell viability by trypan blue exclusion, U-937; type: cell-based, human; settings: U-937, 48 h; for IC50: Homo sapiens, read-out: IC50 (mean ± SD) cell viability U-937
Method: U-937 and RAJI cell lines were purchased from Deutsche Sammlung für Mikroorganismen und Zellkulturen (DSZM). Cells were maintained in RPMI 1640 (Lonza) supplemented with 10% fetal calf serum (Lonza) and 1% antibiotic–antimycotic (Lonza). Cells were treated with compounds at the indicated concentrations in exponential growth phase. Proliferation and viability were assessed by trypan blue exclusion analysis at the indicated time points.

Compound | inhibition at 8 µM [1] | IC50 (U-937 cells) | antiproliferative potency compared to SGI-1027, fold less efficient (U-937 cells) | melting point
c1ccc(CN2CCC(Nc3nc(N4CCN(c5ccccc5)CC4)nc4ccccc34)CC2)cc1 [Compound 14, N-(1-benzylpiperidin-4-yl)-2-(4-phenylpiperazin-1-yl)quinazolin-4-amine] | 10% | 4.4 ± 1.4 µM | 2.6 fold | –
CN1CCCN(c2nc(NC3CCN(Cc4ccccc4)CC3)c3ccccc3n2)CC1 [Compound 4] | 0% | 16.6 ± 3.8 µM | – | –
c1ccc(CN2CCC(Nc3nc(N4CCN(c5ccccn5)CC4)nc4ccccc34)CC2)cc1 [Compound 13] | 3.3% | 18.8 ± 1.2 µM | – | –
c1ccc(CN2CCC(Nc3nc(N4CCCC4)nc4ccccc34)CC2)cc1 [Compound 10, N-(1-benzylpiperidin-4-yl)-2-(pyrrolidin-1-yl)quinazolin-4-amine] | 9.2% | 14.7 ± 3.8 µM | – | 112 to 115 °C
